From patent US6890951B2, “Treatment of addiction and addiction-related behavior” (Brookhaven Science Associates LLC, priority 1998, dated 2005)
Where two headings read alike, the source gives them in different places.

Experiments:
[1] = test system: synaptic DA ([11C]-raclopride binding, corpus striatum); assay: Primate PET: [11C]-raclopride DV ratio after cocaine challenge; format: in vivo, baboons (Papio anubis); conditions: Group 2: cocaine hydrochloride 0.5, 1.0 or 2.0 mg/kg, 5 or 30 minutes prior to second [11C]-raclopride injection
Procedure: Arterial blood samples were obtained throughout the study and selected plasma samples were analyzed for the presence of unchanged radio tracer carbon-11. Animals were not removed from the gantry between isotope injections. Regions of interest (ROI's) were drawn directly on the PET images. Briefly, the corpus striatum was outlined, bilaterally, on every transaxial slice upon which it appeared. The cerebellar ROI was drawn across the midline at the level of the cerebellar vermis. ROI's from the first study were then copied directly onto the corresponding slice from the second. By examining placement of the ROI's on the second scan changes could be made, if necessary, in ROI position only. This multi planar method of analysis reduced differences that may arise due to movement of the animal within the gantry during the scanning interval.
A graphical method for determining the distribution volume (DV) was developed previously for the kinetic analysis of the [^11C]-raclopride data. The DV ratio was the most reproducible measure of raclopride uptake. The ratio is the DV from a receptor-rich region (corpus striatum) to the DV of a non-receptor region (cerebellum). The free receptor concentration was directly proportional to the DV ratio of 1. […]

male Sprague-Dawley rats = format: in vivo
Text: In all rodent studies, male Sprague-Dawley rats were used (200-225 g, Taconic farms, Germantown, N.Y.). Animals were allowed to acclimate to the animal housing facility for at least 5 days prior to beginning the experiments. […] The conditioning procedure for the acquisition phase consisted of 12 sessions carried out consecutively over 12 days.
The animals in each group were randomly assigned to a 2×2 factorial design with one factor being the pairing chamber and the other factor being the order of conditioning. The animals that received either saline or cocaine were injected and confined to the appropriate compartment for 30 minutes.
[…] The amount of time spent in each chamber was recorded using an automated infrared beam electronically coupled to a timer.
In this example the procedure outlined in Section 2 of Materials and Methods was followed.

freely moving rats = assay: Cocaine-induced stereotypy after a sensitizing regimen of cocaine; format: in vivo
Procedure: The phenomenon of sensitization is observed with virtually all drugs of addiction. Sensitization is believed to play a role in the etiology of addiction.
Animals received 15 mg/kg i.p. of cocaine and stereotypy was determined in standard locomotor cages. For 6 consecutive days, animals received 15 mg/kg i.p. of cocaine once a day in their home cages. Eight days later, animals were rechallenged with 15 mg/kg i.p. of cocaine and stereotypy was determined. A five point rating scale was used to assess stereotypy and the rater was blind to the treatment received by each animal.

NAc DA = assay: Microdialysis: cocaine/heroin (speedball) induced increases in NAc DA; format: in vivo, rats; conditions: cocaine 20 mg/kg i.p. or heroin 0.5 mg/kg i.p. alone
Procedure: In vivo microdialysis studies were performed using adult male Sprague-Dawley rats (Taconic Farms) as detailed previously (Morgan and Dewey, 1998). Cocaine, a dopamine reuptake inhibitor, (n=6-8) was administered (i.p.) at a dose of 20 mg/kg while heroin, an indirect dopamine releaser, (n=6-8) was administered (i.p.) at a dose of 0.5 mg/kg. In studies designed to investigate the synergistic effects of a cocaine/heroin combination (n=6-8), both drugs were administered at the identical dose used in the single drug studies. Alone cocaine produced a marked elevation in extracellular DA of approximately 380% above baseline values, 60 minutes following administration. DA returned to baseline within 120 minutes. In contrast, heroin increased NAc DA by only 70%, 60 minutes following administration, returning to baseline within 140 minutes. However, when combined, the two drugs produced an increase in NAc DA of approximately 1000%, 180 minutes following administration that had not returned to baseline values by 200 minutes after reaching peak values (FIG. 9).

[2] = test system: extracellular DA levels in the NACC; assay: Microdialysis: cocaine-induced increases in extracellular DA, earlier studies
[3] = acquisition, Saline/Cocaine pairing, cocaine 20 mg/kg (Table IV)
[4] = acquisition, Saline/Cocaine pairing, cocaine 20 mg/kg (Table V)
[5] = acquisition, Saline/Cocaine pairing, cocaine 20 mg/kg (Table VI)
[6] = expression, Saline/Cocaine pairings, saline on test day (Table IX)
[7] = expression, Saline/Cocaine pairings, saline on test day (Table VII)
[8] = expression, Saline/Cocaine pairings, saline on test day (Table VIII)
[9] = expression, Saline/Cocaine pairings, saline on test day (Table X)

COC(=O)[C@H]1[C@@H](OC(=O)c2ccccc2)C[C@@H]2CC[C@H]1N2C [Cocaine]
reduction in the mean DV ratio [1]: greater than 30% | Time spent in chambers, Unpaired (male Sprague-Dawley rats; acquisition, Saline/Cocaine pairing, cocaine 20 mg/kg (Table III)): 3.9 ± 0.4 min | Time spent in chambers, Paired (male Sprague-Dawley rats; acquisition, Saline/Cocaine pairing, cocaine 20 mg/kg (Table III, 75 mg/kg GVG experiment)): 11.1 ± 0.3^4 min | Time spent in chambers, Paired (male Sprague-Dawley rats; [3]): 11.8 ± 0.5^4 mins | Time spent in chambers, Unpaired (male Sprague-Dawley rats; [3]): 3.2 ± 0.5 min | Time spent in chambers, Paired (male Sprague-Dawley rats; [4]): 11.6 ± 0.5^4 min | Time spent in chambers, Unpaired (male Sprague-Dawley rats; [4]): 3.4 ± 0.4^5 min | Time spent in chambers, Paired (male Sprague-Dawley rats; [5]): 11.2 ± 0.6^4 mins | Time spent in chambers, Unpaired (male Sprague-Dawley rats; [5]): .8 ± 0.5^5 mins | Time spent in chambers, Paired (male Sprague-Dawley rats; cocaine 5.0 mg/kg i.p.): 8.2 ± 0.4 min | Time spent in chambers, Unpaired (male Sprague-Dawley rats; cocaine 5.0 mg/kg i.p.): 6.8 ± 0.5 min | Time spent in chambers, Paired (male Sprague-Dawley rats; cocaine 10.0 mg/kg i.p.): 9.6 ± 0.5^2 mins | Time spent in chambers, Unpaired (male Sprague-Dawley rats; cocaine 10.0 mg/kg i.p.): 5.4 ± 0.3 min | Time spent in chambers, Paired (male Sprague-Dawley rats; cocaine 20.0 mg/kg i.p.): 11.8 ± 0.4^3 mins | Time spent in chambers, Unpaired (male Sprague-Dawley rats; cocaine 20.0 mg/kg i.p.): 3.2 ± 0.4^4 mins | Time spent in chambers, Paired (male Sprague-Dawley rats; [6]): 11.1 ± 0.5^3 min | Time spent in chambers, Unpaired (male Sprague-Dawley rats; [6]): 3.9 ± 0.4^4 min | Time spent in chambers, Paired (male Sprague-Dawley rats; [7]): 11.8 ± 0.5^3 min | Time spent in chambers, Unpaired (male Sprague-Dawley rats; [7]): 3.2 ± 0.5 min | Time spent in chambers, Paired (male Sprague-Dawley rats; [8]): 12.2 ± 0.6^3 min | Time spent in chambers, Unpaired (male Sprague-Dawley rats; [8]): 2.8 ± 0.5 min | Time spent in chambers, Paired (male Sprague-Dawley rats; [9]): 12.5 ± 0.8^3 min | Time spent in chambers, Unpaired (male Sprague-Dawley rats; [9]): 2.5 ± 0.6^4 min | Stereotypies on Day 15 (freely moving rats; cocaine 15 mg/kg i.p. rechallenge after sensitizing regimen, 1 ml/kg i.p. 0.9% NaCl before): 4.1 ± 0.5 | Stereotypy score on Day 1 (freely moving rats; cocaine 15 mg/kg i.p., group later given 0.9% NaCl, five point rating scale): 2.5 ± 0.4 | time for DA to return to baseline (NAc DA): ≤ 120 min | increase of NACC DA levels (rank order) [2]: 450%
